Assay results from PubChem BioAssay (NCI).
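These data come from cells grown in 96-well plates and exposed to compound for 48 hours at five concentrations. GI50 marks 50% less growth. Definition used: TGI = concentration required for complete inhibition of growth.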

Legend:
Assay in all cases: NCI-60 cell line screen, 48 h
[1] = system: A498 renal
[2] = system: HCT-116 colon
[3] = system: CCRF-CEM leukemia
[4] = system: SF-268 CNS
[5] = system: A549 NSCLC
[6] = system: HOP-62 NSCLC
[7] = system: HL-60(TB) leukemia
[8] = system: NCI-H460 lung
[9] = system: RPMI-8226 leukemia
[10] = system: OVCAR-5 ovarian

Compound | TGI [1] [µM] | TGI [2] [µM] | TGI [3] [µM] | TGI [4] [µM] | TGI [5] [µM] | TGI [6] [µM] | TGI [7] [µM] | TGI [8] [µM] | TGI [9] [µM] | TGI [10] [µM] | GI50 [1] [µM] | GI50 [2] [µM] | GI50 [3] [µM] | GI50 [4] [µM] | GI50 [5] [µM] | GI50 [7] [µM] | GI50 [9] [µM] | GI50 [10] [µM] | GI50 [8] [µM]
CN(C)c1cc[n+](-c2nc(/N=C(\[O-])C(F)(F)F)nc3c2ncn3C2CC(O)C(CO)O2)cc1 (stereo not given) | > 100 | > 100 | > 100 | > 100 | > 100 | > 100 | > 100 | > 100 | > 100 | > 100 |  |  |  |  |  |  |  |  | 
O=C(OCC(Cl)(Cl)Cl)O[C@@H]1CCCC1(c1ccccc1)c1ccccc1 |  | > 100 | > 100 | > 100 | > 100 | > 100 |  | > 100 |  | > 100 |  |  |  |  |  |  |  |  | 
COc1cc(C2c3cc4c(cc3OC(NCCO)C2C)OCO4)cc(OC)c1OC (stereo not given) | 2.81 | > 100 |  | > 84.9 | > 100 | 9.03 |  | > 100 | > 34 | > 100 |  |  |  |  |  |  |  |  | 
C[C@@H]1S[C@H](c2c(Cl)cccc2Cl)N2Cc3ccccc3N=C12 | > 100 | > 100 | > 100 | > 100 | > 100 | > 100 | > 100 | > 100 | > 100 | > 100 |  |  |  |  |  |  |  |  | 
CC1=NC(=Cc2ccc([N+](=O)[O-])cc2)C(=O)N1n1c(-c2ccccc2)nc2ccccc2c1=O |  | > 100 | > 100 | > 100 | > 100 | > 100 | 88.4 |  | 53.6 |  |  |  |  |  |  |  |  |  | 
CCc1nc2ccc(NCCN(C)C)c3c(=O)c4ccccc4n1c23 | 11 | 6.26 | 15.1 | 5.36 | 4.76 | 5.12 | 8.68 | 3.07 | 7.78 | 6.69 |  |  |  |  |  |  |  |  | 
CC(=O)N(O)c1ccc(-c2nc3ccccc3s2)cc1 | > 100 | > 100 | > 100 | > 100 | > 100 | > 100 |  | > 100 | > 100 | > 100 |  |  |  |  |  |  |  |  | 
COc1ccc(C(C2=C(O)COC2=O)c2cc3c(cc2O)OCO3)cc1OC (stereo not given) | > 100 | > 100 | > 100 | > 100 | > 100 | > 100 | > 100 | > 100 | > 100 | > 100 |  |  |  |  |  |  |  |  | 
O=c1cnn(CCOCP(=O)(O)O)c(=O)[nH]1 | > 100 |  | > 100 | > 100 | > 100 | > 100 |  | > 100 | > 100 | > 100 |  |  |  |  |  |  |  |  | 
COc1cc(N(Cc2ccc3oc(=O)c(-c4ccccc4)nc3c2)Cc2ccc3oc(=O)c(-c4ccccc4)nc3c2)cc(OC)c1OC |  | > 10 | > 10 | > 10 | > 10 | > 10 | > 10 | > 10 | > 10 | > 10 |  |  |  |  |  |  |  |  | 
Cc1ccccc1NC(=O)Cc1csc2[n+]1C(=O)/C(=C/c1ccc([N+](=O)[O-])cc1)S2 |  | > 100 |  |  | > 100 | > 100 | > 100 | 88 |  | > 100 |  |  |  |  |  |  |  |  | 
Oc1[nH]c2ccccc2c1/C=c1/cc2c(c(-c3ccc(F)cc3)n1)=Nc1ccccc1-2 | 1.85 | 2.24 | 3.25 | 9.26 | 2.28 |  | 0.994 |  | 2.03 | 4.39 | 0.309 | 1.01 | 0.648 | 1.01 | 0.815 | 0.282 | 0.406 | 1.36 | 
S=C(Nc1ccc2cn[nH]c2c1)Nc1ccc2cn[nH]c2c1 | > 100 | > 100 |  | > 100 | > 100 | > 100 |  | > 100 | > 100 | > 100 |  |  |  |  |  |  |  |  | 
CCOC(=O)Cc1nc2c(N)ncnc2n1C1OC(COC(C)=O)C(OC(C)=O)C1OC(C)=O (stereo not given) | > 100 | > 100 | > 100 | > 100 | > 100 | > 100 | > 100 | > 100 | > 100 |  |  |  |  |  |  |  |  |  | 
CN1c2ccccc2N(C(=O)c2ccccc2)C(CC(=O)O)c2cccn21 (stereo not given) | > 100 |  | > 100 | > 100 | > 100 | > 100 | > 100 | > 100 | > 100 | > 100 |  |  |  |  |  |  |  |  | 
Cc1nc2ccccc2c(/C=C/c2ccc(Cl)cc2)c1C(=O)/C=C/c1ccc(Cl)cc1 |  |  | > 100 |  |  |  | 4.37 | 3.15 | 6.34 |  |  |  | 0.605 |  |  | 1.46 | 1.2 |  | 1.41
CC(=O)Oc1ccc(/C=C/C(=O)O[C@@H](C(=O)O)[C@@H](OC(=O)/C=C/c2ccc(OC(C)=O)c(OC(C)=O)c2)C(=O)O)cc1OC(C)=O | > 100 | > 100 | > 100 | > 100 | > 100 | > 100 |  | > 100 | > 100 | > 100 |  |  |  |  |  |  |  |  | 
Cc1nc2c(=S)n(C)ncc2[nH]1 | > 100 | > 100 | > 100 |  | > 100 | > 100 | > 100 |  | > 100 | > 100 |  |  |  |  |  |  |  |  | 
COc1cc(-c2ccccc2N)c2cccnc2c1OC | 27.2 | 11.9 | 22.5 | 12.8 | 16.1 | 19 | 16.5 | 43.4 | 14.8 |  |  |  |  |  |  |  |  |  | 
CSc1c(C(=O)Nc2ccc(Cl)cc2)c(N)n(N)c(=O)c1C#N | > 100 | > 100 | > 100 | > 100 | > 100 |  | > 100 | > 100 | > 100 | > 100 |  |  |  |  |  |  |  |  | 
CCOC(=O)N(c1ccccc1)N(CC)C(=O)/C(C)=N/Nc1ccc([N+](=O)[O-])cc1 | 28 | 27.1 | 42 | 34.1 | 33.9 | 30 | 35.8 |  | 58 |  |  |  |  |  |  |  |  |  | 
O=C(NC(=S)NC(=O)c1cc(O)c(O)c(O)c1)c1cc(O)c(O)c(O)c1 | > 100 | 44.4 | > 100 | > 100 | > 100 |  |  | > 100 | > 100 | 78.8 |  |  |  |  |  |  |  |  | 
